Consider one compound from the NIST ThermoML archive (doi:10.1021/je020176b).

± gives the expanded uncertainty stated by the source.

For data set [1] the following is noted: Crystal; DTA.
Data set [2] is described as follows: Molar enthalpy of transition or fusion. The following applies: Crystal; DSC.

With `C[C@H]([C@@H](O)c1ccccc1)N(C)C` [(+)-N-methylephedrine], the Normal melting temperature in data set [1] turned out to be 86.60 ± 2 °C. Moreover, in data set [2], the “Molar enthalpy of transition or fusion” value worked out at 7.3 ± 0.208 kcal/mol.
